Source: patent US7438931B2, “Methods and compositions for the treatment of angiogenic diseases” (The Regents of The University of Michigan, priority 1998, dated 2008)
Several values for one entry are separate records, joined by “and”; a condition that tells them apart may be missing. Identical values can stand only once.

Columns and labels:
[1] = Storage stability of TM (bulk under argon, capsules); type: physicochemical; conditions: room temperature
From the text: The bulk drug is therefore stored under argon.
TM was purchased in bulk lots suitable for human administration (Aldrich Chemical Company, Milwaukee, Wis.). […] At the time a prescription was written, the appropriate dose of TM was placed in gelatin capsules. Previously, it was shown by the inventors that TM dispensed in such capsules retained at least 90% of its potency for eight weeks (Brewer et al., 1991a). Thus, TM was dispensed to each patient in eight-week installments throughout the trial.

[2] = test system: MML cells (prostate cancer) and breast cancer cells; test: Cytotoxicity assay of MML cells and breast cancer cells; type: cell-based
From the text: Normal and neoplastic cells in culture derive their nutrients from transport and utilization of molecules from the media to the interior of the cell. This process is not dependent on blood vessel growth, and therefore TM should have no effect on cell growth rates and cell viability over a wide range of concentration, until a level of TM which is toxic to most cells is reached. One mechanism of toxicity is the depletion of free copper levels below those required for basic cell function. For concentrations of TM beyond this toxic level, both normal and neoplastic cells will be unable to survive, due to cellular toxicity of TM.
This was confirmed in a cytotoxicity assay of MML cells (prostate cancer) and breast cancer cells. […] The fraction of viable cells decreased precipitously from 100% to 15% when the concentration of TM increased from 1 μg/ml to 10 μg/ml. TM is therefore not contemplated for use a direct cytotoxic agent, as it is clear that, at the very high doses required for a cytotoxic effect, both tumor and normal cell death would occur. The serum TM concentrations needed to achieve an effective decoppering level are 100-500-fold lower than the threshold lethal level for cells.

[3] = test system: SUM149 breast cancer cells; test: Nude mice with orthotopically injected SUM149 cells; type: in vivo
From the text: In this study, the ability of tetrathiomolybdate (TM) to abrogate or retard the growth of tumors in the mammary pads of nude mice after orthotropic injection of human breast cancer cells was studied. The highly angiogenic inflammatory breast cancer cell line called SUM149 was selected for this study. Given its high propensity to form palpable tumors within 2 weeks of injection into the mammary of 80-100% of the nude mice injected, this cell line posed a stringent test of the ability of TM to impair tumor progression.
Three groups of 5 nude mice each were set up in separate cages. Groups 2 and 3 received TM in the drinking water to average an intake of 1.2 mg/day/mouse, starting at day −7. Groups 1, 2, and 3 were injected on day 0 with 10^6 SUM149 breast cancer cells in the second thoracic mammary fat pad. On day 34, as no palpable tumors were noticeable in any of the mice in the treatment groups, TM was skipped on groups 2 and 3, and then TM was restarted on group 2 at a dose of 0.6 mg/day/mouse, while TM was resumed at full dose (1.2 mg/mouse/day) in group 3.
The developing tumors were measured approximately twice weekly, and the average of the product of the bi-dimensional perpendicular diameters for each group versus time is plotted in FIG. 3. The tumors in the control group grew relatively rapidly and all animals developed tumors. […] This dose decreases copper to approximately 10-20% of baseline levels. It is this degree of copper deficiency, well tolerated in both mice and humans, which appears to be required to inhibit tumor angiogenesis.

Phase I trial: toxicity = type: in vivo, human
From the text: Six patients were to be enrolled at each dose level. After 4 patients were enrolled at level I, if one patient experienced dose-limiting toxicity (DLT) (defined as Hct<80% of baseline), 2 more patients were enrolled at level I. If no DLT was observed, patients were enrolled at the next dose level. Treatment was allowed to continue beyond induction of target copper deficiency, if the patients experienced a partial or complete clinical response or achieved clinical stable disease by the following definitions. Complete response is defined as the disappearance of all clinical and laboratory signs and symptoms of active disease. Partial response is defined as a 50% or greater reduction in the size of measurable lesions defined by the sum of the products of the longest perpendicular diameters of the lesions, with no new lesions or lesions increasing in size. Minor response is defined as a 25-49% reduction in the sum of the products of the longest perpendicular diameters of one or more measurable lesions, no increase in size of any lesions and no new lesions; stable disease is any change in tumor measurements not represented by the criteria for response or progressive disease, which is defined as an increase of 25% or more in the sum of the products of the longest perpendicular diameters of any measurable indicator lesions, compared to the smallest previous measurement or appearance of a new lesion. Because copper deficiency is not a cytotoxic treatment modality, the patients who provide information about the efficacy of TM for long-term therapy, in this population of patients with advanced cancer, are primarily those who remained within the target Cp window of (20±10)% of baseline for over 90 days, without disease progression
Complete blood counts, liver and renal function tests, urinalyses, and Cp level (by the oxidase method) were performed weekly for 16 weeks, then bi-weekly. Physical examinations and evaluations of toxicity were carried out every 2 weeks for 8 weeks, then every 4 weeks for the duration of therapy. Toxicity was evaluated using the National Cancer Institute Common Toxicity Criteria (Table 3). […] Nevertheless, therapy will be discontinued and the patient removed from the study if grade 3 or higher toxicities of any type are observed, whatever the probable etiology. For grade 2 toxicities, an attempt will be made to establish their etiology.

Cp level = test: TM loading dosing schedule and Cp reduction; type: in vivo, human; conditions: 20 mg tid with meals and a single dose of 60 mg between meals, vs 20 mg tid with meals and 20 mg tid between meals
Description: Therefore, this dosing schedule will be studied in a Phase II study. Three other loading doses of TM will also be studied: Level 1: 20 mg tid between meals and 20 mg tid with meals until Cp<20% (10 patients); Level 2: 25 mg tid between meals and 25 mg tid with meals until Cp<20% (10 patients); and Level 3: 30 mg tid between meals and 30 mg tid with meals until Cp<20% (10 patients).

copper toxicity = conditions: late stages of liver disease; cited from earlier work
[4] = in vivo, iv; cited from earlier work

Description for mammary tumors: The time of onset of tumors and the quality and quantity of tumor vessels between the treatment and control groups were compared.
The percentage of disease-free mice in the untreated control group was compared to a group of the same transgenic mice treated with 0.5-1.0 mg TM by gavage daily, starting at 100 days of age.

Substance: tetrathiomolybdate [TM]
- stability in capsules [1]: stable in capsules for several months at room temperature
- serum TM concentrations for effective decoppering relative to threshold lethal level for cells [2]: 100-500 fold lower
- palpable tumors ([3]; 1.2 mg/day/mouse in drinking water from day −7): no tumors were palpable until TM was skipped on day 34
- tumor growth after TM skipped on day 34 ([3]; TM restarted at ½ dose (0.6 mg/day/mouse)): the tumors grew more rapidly
- tumor growth after TM skipped on day 34 ([3]; TM resumed at full dose 1.2 mg/day/mouse): only very small tumors have grown
- copper level ([3]; full dose 1.2 mg/day/mouse): 10-20 % of baseline levels
- decrease of copper levels ([3]; ½ dose of TM (0.6 mg/day/mouse)): 50%
- toxicities (Phase I trial: toxicity; Cp levels at or above 20% of baseline): no cardiac, pulmonary, GI, renal, hepatic, hematologic, infectious, skin, mucosal, or neurologic toxicities observed
- patients with mild (greater than 80% of baseline Hct) reversible anemia (Phase I trial: toxicity; Cp levels between 10-20% of baseline): 4 patients
- toxicity (Phase I trial: toxicity; Cp lowered to 10-20% of baseline for up to 17 months of treatment): remarkably non-toxic
- toxicity (Phase I trial: toxicity; Cp reduced to 15-20% of baseline): non-toxic
- only drug-related toxicity observed (Phase I trial: toxicity; in vivo): mild anemia in one patient
- toxicities on long-term maintenance (Phase I trial: toxicity; mild clinical copper deficiency over 8-15 months): No additional toxicities of any type were observed
- time for hematocrit to recover after stopping the drug (Phase I trial: toxicity; one patient, without transfusion): 5 to 7 days
- other adverse effect (Phase I trial: toxicity; several patients, within 30 minutes of TM ingestion): transient, occasional sulphur-smelling burping
- speed of Cp reduction (Cp level): reduces the Cp level to <20% more rapidly
- development of clinically overt tumors (mammary tumors; 0.5-1.0 mg TM by gavage daily from 100 days of age, median follow-up of 260 days): none of the TM-treated mice developed clinically overt tumors
- maximum tolerated dose (MTD) (mammary tumors; adult mice (average weight 32 grams), prolonged treatment): 1.0 mg/day
- outcome at higher doses (mammary tumors; animals who received 1.25-1.5 mg): died after 1-3 weeks of therapy
- shrinkage of well established mammary tumors (mammary tumors; control animals treated after tumors >1.5 cm, 2 of 3 cases): 25% and 50%
- anemia (mammary tumors; copper (Cp) decreased to below 40% of baseline): no anemia observed
- toxicity (mammary tumors; copper levels decreased to 10% of baseline): no clinically overt toxicity
- time to clinically overt mammary tumors after release from treatment (mammary tumors; cross-over group, previously disease-free): ≤ 18 days
- vascularization of micro-tumors in mammary glands (mammary tumors; microscopic analyses of TM-treated mice): none of the micro-tumors of the treated mice were vascularized
- ceruloplasmin (Cp) (mammary tumors; treatment group): below 40 % of baseline
- efficacy against copper toxicity (copper toxicity): very effective in treating these animals in the late stages of their liver disease
- excreted in feces [4]: 5%
- excreted in urine [4]: over 90%
- t1/2 of slow plasma disappearance [4]: about 40 h
